Results: patent US20100099561A1, “HETEROBICYCLIC ALKYLTHIO-BRIDGED ISOXAZOLINES” (E.I. DU PONT DE NEMOURS AND COMPANY, priority 2008, published 2010)

Experiments:
Assay type in all cases: in vivo
[1] = test system: barnyardgrass (Echinochloa crus-galli); assay: Test A preemergence, barnyardgrass; conditions: 0 to 100 scale (0 no effect, 100 complete control)
Procedure, shortened: (§1)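 Each compound, in a non-phytotoxic solvent mixture with surfactant, is applied to soil at planting and, concurrently, to young one- to two-leaf plants. After approximately ten greenhouse days, visual response is rated 0 (no effect) to 100 (complete control) against untreated controls.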

[2] = test system: large crabgrass (Digitaria sanguinalis); assay: Test A preemergence, large crabgrass; conditions: 0 to 100 scale (0 no effect, 100 complete control)
Procedure, shortened: as §1

[3] = test system: giant foxtail (Setaria faberi); assay: Test A preemergence, giant foxtail; conditions: 0 to 100 scale (0 no effect, 100 complete control)
Procedure, shortened: as §1

[4] = test system: morningglory (Ipomoea spp.); assay: Test A preemergence, morningglory; conditions: 0 to 100 scale (0 no effect, 100 complete control)
Procedure, shortened: as §1

[5] = test system: pigweed (Amaranthus retroflexus); assay: Test A preemergence, pigweed; conditions: 0 to 100 scale (0 no effect, 100 complete control)
Procedure, shortened: as §1

[6] = test system: velvetleaf (Abutilon theophrasti); assay: Test A preemergence, velvetleaf; conditions: 0 to 100 scale (0 no effect, 100 complete control)
Procedure, shortened: as §1

[7] = test system: wheat (Triticum aestivum); assay: Test A preemergence, wheat; conditions: 0 to 100 scale (0 no effect, 100 complete control)
Procedure, shortened: as §1

corn (Zea mays) [8] = assay: Test A preemergence, corn; conditions: 0 to 100 scale (0 no effect, 100 complete control)
Procedure, shortened: as §1

[9] = test system: barnyardgrass (Echinochloa crus-galli); assay: Test A postemergence, barnyardgrass; conditions: 0 to 100 scale (0 no effect, 100 complete control)
Procedure, shortened: as §1

[10] = test system: large crabgrass (Digitaria sanguinalis); assay: Test A postemergence, large crabgrass; conditions: 0 to 100 scale (0 no effect, 100 complete control)
Procedure, shortened: as §1

[11] = test system: giant foxtail (Setaria faberi); assay: Test A postemergence, giant foxtail; conditions: 0 to 100 scale (0 no effect, 100 complete control)
Procedure, shortened: as §1

[12] = test system: morningglory (Ipomoea spp.); assay: Test A postemergence, morningglory; conditions: 0 to 100 scale (0 no effect, 100 complete control)
Procedure, shortened: as §1

[13] = test system: pigweed (Amaranthus retroflexus); assay: Test A postemergence, pigweed; conditions: 0 to 100 scale (0 no effect, 100 complete control)
Procedure, shortened: as §1

[14] = test system: velvetleaf (Abutilon theophrasti); assay: Test A postemergence, velvetleaf; conditions: 0 to 100 scale (0 no effect, 100 complete control)
Procedure, shortened: as §1

[15] = test system: wheat (Triticum aestivum); assay: Test A postemergence, wheat; conditions: 0 to 100 scale (0 no effect, 100 complete control)
Procedure, shortened: as §1

corn (Zea mays) [16] = assay: Test A postemergence, corn; conditions: 0 to 100 scale (0 no effect, 100 complete control)
Procedure, shortened: as §1

rice (Oryza sativa) = assay: Test B flooded paddy test, rice; conditions: Flood, scale 0 to 100
Procedure, shortened: (§2)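 Rice, umbrella sedge, ducksalad and barnyardgrass at 2-leaf stage; pots flooded to 3 cm, compounds applied into paddy water, depth held throughout. Greenhouse 13 to 15 days, then visual rating vs untreated controls on 0–100 scale (0 no effect, 100 complete control); dash means no test result.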

[17] = test system: umbrella sedge (Cyperus difformis); assay: Test B flooded paddy test, umbrella sedge; conditions: Flood, scale 0 to 100
Procedure, shortened: as §2

[18] = test system: ducksalad (Heteranthera limosa); assay: Test B flooded paddy test, ducksalad; conditions: Flood, scale 0 to 100
Procedure, shortened: as §2

[19] = test system: barnyardgrass (Echinochloa crus-galli); assay: Test B flooded paddy test, barnyardgrass; conditions: Flood
Procedure, shortened: as §2

[20] = 250 g ai/ha, scale 0 to 100 (0 no effect, 100 complete control)

Cc1con2c(=O)c(CS(=O)(=O)C3=NOC(C)(C)C3)c(C(F)(F)F)nc12 [Compound 56]
0: Plant response rating, Barnyardgrass ([1]; 125 g ai/ha) | Plant response rating, Crabgrass, Large ([2]; 125 g ai/ha) | Plant response rating, Morningglory ([4]; 125 g ai/ha) | Plant response rating, Morningglory ([4]; 500 g ai/ha) | Plant response rating, Pigweed ([5]; 125 g ai/ha) | Plant response rating, Pigweed ([5]; 500 g ai/ha) | Plant response rating, Velvetleaf ([6]; 125 g ai/ha) | Plant response rating, Velvetleaf ([6]; 500 g ai/ha) | Plant response rating, Wheat ([7]; 125 g ai/ha) | Plant response rating, Wheat ([7]; 500 g ai/ha) | Plant response rating, Corn (corn (Zea mays) [8]; 125 g ai/ha) | Plant response rating, Corn (corn (Zea mays) [8]; 500 g ai/ha) | Plant response rating, Pigweed ([13]; 125 g ai/ha) | Plant response rating, Velvetleaf ([14]; 125 g ai/ha) | Plant response rating, Velvetleaf ([14]; 500 g ai/ha) | Plant response rating, Wheat ([15]; 125 g ai/ha) | Plant response rating, Wheat ([15]; 500 g ai/ha) | Plant response rating, Corn (corn (Zea mays) [16]; 125 g ai/ha) | Plant response rating, Corn (corn (Zea mays) [16]; 500 g ai/ha) | Plant response rating, Rice (rice (Oryza sativa); 31 g ai/ha) | Plant response rating, Rice (rice (Oryza sativa); 62 g ai/ha) | Plant response rating, Rice (rice (Oryza sativa); 125 g ai/ha) | Plant response rating, Rice (rice (Oryza sativa); 250 g ai/ha) | Plant response rating, Sedge, Umbrella ([17]; 31 g ai/ha) | Plant response rating, Sedge, Umbrella ([17]; 62 g ai/ha) | Plant response rating, Ducksalad ([18]; 31 g ai/ha) | Plant response rating, Ducksalad ([18]; 62 g ai/ha) | Plant response rating, Ducksalad ([18]; 125 g ai/ha) | Plant response rating, Ducksalad ([18]; 250 g ai/ha) | Plant response rating, Barnyardgrass ([19]; 31 g ai/ha, scale 0 to 100) | Plant response rating, Barnyardgrass ([19]; 62 g ai/ha, scale 0 to 100) | Plant response rating, Barnyardgrass ([19]; 125 g ai/ha, scale 0 to 100) | Plant response rating, Barnyardgrass [19, 20]
70: Plant response rating, Barnyardgrass ([9]; 125 g ai/ha)
60: Plant response rating, Crabgrass, Large ([10]; 125 g ai/ha)
40: Plant response rating, Foxtail, Giant ([11]; 125 g ai/ha)
30: Plant response rating, Morningglory ([12]; 500 g ai/ha) | Plant response rating, Sedge, Umbrella ([17]; 250 g ai/ha)
10: Plant response rating, Morningglory ([12]; 125 g ai/ha) | Plant response rating, Pigweed ([13]; 500 g ai/ha)
20: Plant response rating, Foxtail, Giant ([3]; 125 g ai/ha) | Plant response rating, Sedge, Umbrella ([17]; 125 g ai/ha)
90: Plant response rating, Barnyardgrass ([1]; 500 g ai/ha) | Plant response rating, Crabgrass, Large ([2]; 500 g ai/ha) | Plant response rating, Foxtail, Giant ([3]; 500 g ai/ha)
80: Plant response rating, Barnyardgrass ([9]; 500 g ai/ha) | Plant response rating, Crabgrass, Large ([10]; 500 g ai/ha) | Plant response rating, Foxtail, Giant ([11]; 500 g ai/ha)

CCn1c(=O)c(CS(=O)(=O)C2=NOC(C)(C)C2)nc2cccnc21 [Compound 57]
50: Plant response rating, Crabgrass, Large ([2]; 500 g ai/ha)
0: Plant response rating, Barnyardgrass ([1]; 125 g ai/ha) | Plant response rating, Foxtail, Giant ([3]; 125 g ai/ha) | Plant response rating, Morningglory ([4]; 125 g ai/ha) | Plant response rating, Morningglory ([4]; 500 g ai/ha) | Plant response rating, Pigweed ([5]; 125 g ai/ha) | Plant response rating, Pigweed ([5]; 500 g ai/ha) | Plant response rating, Velvetleaf ([6]; 125 g ai/ha) | Plant response rating, Velvetleaf ([6]; 500 g ai/ha) | Plant response rating, Wheat ([7]; 125 g ai/ha) | Plant response rating, Wheat ([7]; 500 g ai/ha) | Plant response rating, Corn (corn (Zea mays) [8]; 125 g ai/ha) | Plant response rating, Corn (corn (Zea mays) [8]; 500 g ai/ha) | Plant response rating, Barnyardgrass ([9]; 125 g ai/ha) | Plant response rating, Foxtail, Giant ([11]; 125 g ai/ha) | Plant response rating, Morningglory ([12]; 125 g ai/ha) | Plant response rating, Morningglory ([12]; 500 g ai/ha) | Plant response rating, Pigweed ([13]; 125 g ai/ha) | Plant response rating, Pigweed ([13]; 500 g ai/ha) | Plant response rating, Velvetleaf ([14]; 125 g ai/ha) | Plant response rating, Velvetleaf ([14]; 500 g ai/ha) | Plant response rating, Wheat ([15]; 125 g ai/ha) | Plant response rating, Wheat ([15]; 500 g ai/ha) | Plant response rating, Corn (corn (Zea mays) [16]; 125 g ai/ha) | Plant response rating, Corn (corn (Zea mays) [16]; 500 g ai/ha) | Plant response rating, Rice (rice (Oryza sativa); 31 g ai/ha) | Plant response rating, Rice (rice (Oryza sativa); 62 g ai/ha) | Plant response rating, Rice (rice (Oryza sativa); 125 g ai/ha) | Plant response rating, Rice (rice (Oryza sativa); 250 g ai/ha) | Plant response rating, Sedge, Umbrella ([17]; 31 g ai/ha) | Plant response rating, Sedge, Umbrella ([17]; 62 g ai/ha) | Plant response rating, Sedge, Umbrella ([17]; 125 g ai/ha) | Plant response rating, Sedge, Umbrella ([17]; 250 g ai/ha) | Plant response rating, Ducksalad ([18]; 31 g ai/ha) | Plant response rating, Ducksalad ([18]; 62 g ai/ha) | Plant response rating, Ducksalad ([18]; 125 g ai/ha) | Plant response rating, Ducksalad ([18]; 250 g ai/ha) | Plant response rating, Barnyardgrass ([19]; 31 g ai/ha, scale 0 to 100) | Plant response rating, Barnyardgrass ([19]; 62 g ai/ha, scale 0 to 100) | Plant response rating, Barnyardgrass ([19]; 125 g ai/ha, scale 0 to 100) | Plant response rating, Barnyardgrass [19, 20]
10: Plant response rating, Crabgrass, Large ([10]; 125 g ai/ha)
30: Plant response rating, Barnyardgrass ([9]; 500 g ai/ha) | Plant response rating, Foxtail, Giant ([11]; 500 g ai/ha)
40: Plant response rating, Barnyardgrass ([1]; 500 g ai/ha) | Plant response rating, Crabgrass, Large ([2]; 125 g ai/ha) | Plant response rating, Foxtail, Giant ([3]; 500 g ai/ha) | Plant response rating, Crabgrass, Large ([10]; 500 g ai/ha)
